In US8663620B2, “Murgantiol as a stink bug synergistic attractant for use outdoors” (Sterling International Inc., priority 2011, dated 2014):
Entries after “also recorded” stand apart in the source; their conditions may differ. Where two headings read alike, the source gives them in different places.

Assays:
Euschistus spp. [1] = settings: seven Euschistus spp.; Aldrich et al. 1991; cited from earlier work
BMSB = settings: cited from earlier work
A. hilare = settings: Aldrich et al. 2007; Khrimian 2005; cited from earlier work
[2] = test system: brown marmorated stink bug (BMSB); test: Field trapping Experiment 1 (Example 1): doses of racemic murgantiol vs standard attractants in Rescue! Stink Bug Traps; type: in vivo, Halyomorpha halys; settings: for attraction of BMSB adults (mean numbers captured in baited traps): Pittsburgh, Pa., 14 days in early September, vs blank control, Duncan's test α=0.05; for attraction of BMSB adults (mean numbers captured in baited traps) / dose-response of trap catches: FIG. 2; for dose-response of trap catches: racemic murgantiol 10, 20, 40, 80 mg
Protocol: (§1) Two field trapping experiments were carried out from early to late September in home gardens/yards in Pittsburgh, Pa. In order to test the potential activity of the Harlequin bug pheromone, murgantiol, as a BMSB outdoor attractant or outdoor synergistic attractant to other known stink bug attractants, commercially available Rescue!® Stink Bug Traps (described in U.S. Pat. No. D645,534; U.S. Pat. No. D645,535; and U.S. patent application Ser. No. 13/331,394, filed Dec. 20, 2011) were used. Traps baited with different tested compounds or combinations were set up in lines, 1-1.5 m above the ground on either tree branches or fences ca. 3-5 m apart between each trap within a set, and at least 50 m between sets. For each trapping experiment, five sets of traps (i.e., five physical replicates of each treatment) were deployed with their initial trap positions within each set being randomized. To minimize positional effects and obtain more replications, stink bug collections and trap re-randomizations were carried out when ≧20 stink bugs were caught in the best traps. Each replicate lasted one to several days depending on stink bug activity. Captured stink bugs were removed from the traps and kept in plastic (polyethylene) zip-bags before returning to the laboratory for recording of the species, gender, and development status (nymphs, adult males/females), and catch. Murgantiol and the known stink bug attractants were released from dispensers [for example, 4 mil polyethylene bags (2.3×5.5 cm) or dispensers described in U.S. patent application Ser. No. 13/206,244, filed Aug. 9, 2011, incorporated herein by reference in its entirety]. Experiment 1 (Example 1) tested different doses of racemic murgantiol (MGT) in comparison with the known standard stink bug attractants [M246DT/M24DD], and the blank control. Trap catch data were converted to proportion (P) of total captured bugs within each replicate. The data were then transformed by arcsin (P)^1/2 to meet the assumptions of normality and homogeneity of variances for ANOVA (analysis of variance). Means were compared by ANOVA followed by the Duncan's multiple range test at α=0.05.

[3] = test system: brown marmorated stink bug (BMSB); test: Field trapping Experiment 2 (Example 2): attractant formulations with and without racemic murgantiol in Rescue! Stink Bug Traps; type: in vivo, Halyomorpha halys; settings: outdoors, September; FIG. 3
Protocol: as §1, with “Murgantiol and the known stink bug attractants were released from dispensers [for example, 4 mil polyethylene bags (2.3×5.5 cm) or dispensers described in U.S. patent application Ser. No. 13/206,244, filed Aug. 9, 2011, incorporated herein by reference in its entirety]. Experiment 1 (Example 1) tested different doses of racemic murgantiol (MGT) in comparison with the known standard stink bug attractants [M246DT/M24DD], and the blank control. Trap catch data were converted to proportion (P) of total captured bugs within each replicate. The data were then transformed by arcsin (P)^1/2 to meet the assumptions of normality and homogeneity of variances for ANOVA (analysis of variance). Means were compared by ANOVA followed by the Duncan's multiple range test at α=0.05.” left out

Euschistus spp. [4] = test: Outdoor trapping with Rescue! Stink Bug Traps, synergistic attraction; type: in vivo; settings: outdoors
Harlequin bugs = settings: insect-produced and synthetic murgantiol; laboratory; cited from earlier work
BMSB adults = settings: both sexes of adults, overwintering and transition periods; cited from earlier work

CCCCC/C=C\C=C\C(=O)OC [M24DD, methyl (2E,4Z)-decadienoate]
field attraction of Euschistus spp. (Euschistus spp. [1]): aggregation pheromone compound or field attractant

CCC\C=C/C=C/C=C/C(=O)OC [M246DT, methyl (2E,4E,6Z)-decatrienoate]
field attraction of BMSB (BMSB; adults (males and females) and nymphs, Aldrich et al. 2007, Khrimian 2005): field attractant for both adults (males and females) and nymphs | attraction of BMSB (BMSB; late spring and early summer, dispersal (overwintered) adults): only weakly active | attraction of BMSB (BMSB; mid-summer and early fall): strongly attractive to both nymphs and adults | field attraction of A. hilare (A. hilare): field attractant

CC(CCC1OC1(C)C)C1C=CC(C)(O)CC1 (racemic) [murgantiol, 4-[3-(3,3-dimethyloxiran-2-yl)-1-methylpropyl]-1-methylcyclohex-2-en-1-ol]
attraction of BMSB adults (mean numbers captured in baited traps) ([2]; outdoors): active as an outdoor attractant; also recorded: comparable, if not more effective in attracting insects; also recorded: outdoor attractant for BMSBs in any dose amount | attraction of BMSB adults (mean numbers captured in baited traps) ([2]; outdoors, listed as MGT-A): strong attraction to BMSBs at levels similar or even higher than the known standard stink bug attractants | attraction of BMSB adults (mean numbers captured in baited traps) ([2]; outdoors, listed as MGT-B): strong attraction to BMSBs at levels similar or even higher than the known standard stink bug attractants | attraction of BMSB adults (mean numbers captured in baited traps) ([2]; outdoors, listed as MGT-C): strong attraction to BMSBs at levels similar or even higher than the known standard stink bug attractants | attraction of BMSB adults (mean numbers captured in baited traps) ([2]; outdoors, listed as MGT-D): strong attraction to BMSBs at levels similar or even higher than the known standard stink bug attractants | sexes and stages attracted and captured ([2]; outdoors, September, nymphs only 5% of total catches): Both sexes of adults (ca. 1:1) and nymphs were attracted and captured | dose-response of trap catches [2]: no significant dose-response effects | dose-response of trap catches ([2]; listed as MGT-A): as effective as the highest dose | effect of adding murgantiol to M246DT/M24DD attractants on BMSB trap catches (synergism) [3]: synergistically attract; also recorded: significant increases in attraction; also recorded: strong synergistic effects | synergistic attraction together with known stink bug attractants such as M246DT and M24DD (Euschistus spp. [4]): synergistically attract | attraction of Harlequin bugs (Harlequin bugs): attracted sexually mature Harlequin bugs of both sexes | indoor attraction of BMSB (BMSB adults): indoor attractant
